{
  "source": "patent US6723717B1",
  "about": "“Sulfur-containing thyroxane derivatives and their use as hair growth promotors” (The University of Texas Southwestern Medical Center, priority 1999, dated 2004)",
  "system": "male Sprague Dawley rats",
  "experiment": "Cardiotoxicity Assay (heart-to-body weight ratio)",
  "assay_type": "in vivo, rat",
  "settings": "250 μg/kg subcutaneously once daily for 28 days, hearts weighed on day 30",
  "from_the_text": "The cardiotoxicity assay measures the potential of a test compound to adversely affect the cardiovascular system. As thyroid hormone (T3) damages the cardiovascular system, the heart enlarges. See, e.g., Gomberg-Maitland et al., “Thyroid hormone and Cardiovascular Disease”, American Heart Journal, Vol. 135(2), pp. 187-196 (1998); Klein and Ojamaa, “Thyroid Hormone and the Cardiovascular System”, Current Opinion in Endocrinology and Diabetes, Vol. 4, pp.341-346 (1997); and Klemperer et al., “Thyroid Hormone Therapy and Cardiovascular Disease”, Progress in Cardiovascular Diseases, Vol. 37 (4), pp. 329-336 (1996). This increases the weight of the heart relative to whole body weight. The cardiotoxicity assay herein below is used to test compounds for potentially adverse cardiac effects by measuring their effect on the heart-to-body weight ratio.\nTwo groups each of six male Sprague Dawley rats (Harlan Sprague Dawley, Inc., Indianapolis, Ind.) (each weighing from approximately 220 grams to 235 grams) are utilized. The first group is a vehicle control group and the second group is a test compound group. The length of the assay is 30 days, with treatment of vehicle or test compound in vehicle daily for 28 of those days as described below.\nPrior to initiation of the assay, each rat is allowed to acclimate to standard environmental conditions for 5 days. […]",
  "data": [
    {"smiles": "N[C@@H](Cc1cc(I)c(Oc2cc(I)c(O)c(I)c2)c(I)c1)C(=O)O", "note": "[Example T4, thyroxine]", "values": [
      {"measurement": "cardiac-sparing (index C = RT/RV, heart/body weight ratio of test group over vehicle group; C less than 1.3 = cardiac-sparing)", "result": "not cardiac-sparine"}
    ]}
  ]
}
